Activity calls are given as the source filed them.
Columns and labels:
Format in all cases: functional, organism-based
Candida albicans = experiment: Antimicrobial activity against Candida albicans at 20 ug/mL by NCCLS method
Cryptococcus neoformans = experiment: Antimicrobial activity against Cryptococcus neoformans at 20 ug/mL by microplate assay
Aspergillus fumigatus = experiment: Antimicrobial activity against Aspergillus fumigatus at 20 ug/mL
Staphylococcus aureus [1] = experiment: Antimicrobial activity against Staphylococcus aureus at 20 ug/mL by microplate assay
Staphylococcus aureus [2] = experiment: Antimicrobial activity against methicillin-resistant Staphylococcus aureus at 20 ug/mL by microplate assay
Pseudomonas aeruginosa = experiment: Antimicrobial activity against Pseudomonas aeruginosa at 20 ug/mL
[3] = system: Mycobacterium intracellulare; experiment: Antimicrobial activity against Mycobacterium intracellular at 20 ug/mL
Plasmodium falciparum [4] = experiment: Antimalarial activity against Plasmodium falciparum D6 at 40 ug/mL
Plasmodium falciparum [5] = experiment: Antimalarial activity against Plasmodium falciparum W2 at 40 ug/mL

Measured: Activity

C[C@H](CC[C@H](O)C(C)(C)O[C@@H]1O[C@H](CO)[C@@H](O)[C@H](O)[C@H]1O)[C@H]1CC[C@@]2(C)[C@@H]3CC[C@H]4C(C)(C)[C@H](O)CC(=O)[C@@]45C[C@@]35C(=O)C[C@]12C
inactive: all assays above

C[C@H](CC[C@H](O)C(C)(C)O[C@@H]1O[C@H](CO)[C@@H](O)[C@H](O)[C@H]1O)[C@H]1CC[C@@]2(C)[C@@H]3[C@@H](O)C[C@H]4C(C)(C)C=CC(=O)[C@@]45C[C@@]35CC[C@]12C
inactive: all assays above

C[C@H](CC[C@H](O)C(C)(C)O[C@@H]1O[C@H](CO)[C@@H](O)[C@H](O)[C@H]1O)[C@H]1CC[C@@]2(C)[C@@H]3[C@@H](O)C[C@H]4C(C)(C)[C@H](O)CC(=O)[C@@]45C[C@@]35CC[C@]12C
inactive: all assays above

C[C@H](CC[C@H](O)C(C)(C)O[C@@H]1O[C@H](CO)[C@@H](O)[C@H](O)[C@H]1O)[C@H]1CC[C@@]2(C)[C@H]3C(=CC[C@]12C)C[C@]12O[C@H]3C[C@H]1C(C)(C)[C@H](O)C[C@@H]2O
inactive: all assays above
